# According to patent publication US4985409A, “Adenosine derivatives and pharmaceutical composition thereof” (Nippon Zoki Pharmaceutical Co., Ltd., priority 1989, dated 1991):
# Columns and labels:
# [1] = test system: spontaneously hypertensive rats (SHR); assay: Antihypertensive activity (blood pressure in spontaneously hypertensive rats, oral); assay type: in vivo; conditions: mean ±S.E.
# Experimental: The test compounds, which were dissolved or suspended in 0.5% C.M.C. aqueous solution, were orally administered to groups of 3 spontaneously hypertensive rats (SHR), 33 to 36 weeks old, which were fasted for 20 hours before drug administration. Blood pressure was measured before and 2 hours after the administration of the test drug.
# [2] = Acute toxicity test (oral LD50, death rate for 14 days); conditions: mouse, in vivo, ddY-strain male mice
# Experimental: The test compounds of the present invention, which were dissolved or suspended in 0.5% carboxymethylcellulose (C.M.C.) aqueous solution, were orally administered to groups of 2 to 5 ddY-strain male mice, and the LD50 values were calculated based on the death rate for 14 days thereafter.
# [3] = Rattus norvegicus, 2 hours after oral 3 mg/kg, read-out: Blood pressure (Decrease %)
# [4] = Rattus norvegicus, 2 hours after oral 0.3 mg/kg, read-out: Blood pressure (Decrease %)
SMILES,LD50 at 336 h [2],Blood pressure 2 hrs ([1]; 2 hours after oral 3 mg/kg),"inhibition in vivo at 3 mg/kg [1, 3]",other results
"CO[C@@H]1[C@H](O)[C@@H](CO)O[C@H]1n1cnc2c(NC3Cc4ccccc4C3)ncnc21 [Compound 12, N^6-(2,3-dihydro-1H-indene-2-yl)-2'-O-methyladenosine]",,,,"Blood pressure 2 hrs ([1]; 2 hours after oral 10 mg/kg): 164 ± 5 mmHg; inhibition in vivo at 10 mg/kg ([1]; Rattus norvegicus, 2 hours after oral 10 mg/kg, read-out: Blood pressure (Decrease %)): 22.7 ± 2.2%"
"CO[C@@H]1[C@H](O)[C@@H](CO)O[C@H]1n1cnc2c(NCc3cccc4ccccc34)ncnc21 [Compound 8, N^6-(1-naphthyl)methyl-2'-O-methyladenosine]",230 mg/kg,140 ± 7 mmHg,36.2 ± 5.7%,
"CO[C@@H]1[C@H](O)[C@@H](CO)O[C@H]1n1cnc2c(NC3CCCCC3)ncnc21 [Compound 2, N^6-cyclohexyl-2'-O-methyladenosine]",,,,"Blood pressure 2 hrs ([1]; 2 hours after oral 0.3 mg/kg): 129 ± 8 mmHg; inhibition in vivo at 0.3 mg/kg [1, 4]: 37.5 ± 1.7%"
"CO[C@@H]1[C@H](O)[C@@H](CO)O[C@H]1n1cnc2c(NC3CCOc4ccccc43)ncnc21 (stereo partly shown) [Compound 24, N^6-(4-chromanyl)-2'-O-methyladenosine]",250 mg/kg,,,"Blood pressure 2 hrs ([1]; 2 hours after oral 1 mg/kg): 98 ± 15 mmHg; inhibition in vivo at 1 mg/kg ([1]; Rattus norvegicus, 2 hours after oral 1 mg/kg, read-out: Blood pressure (Decrease %)): 55.4 ± 5.6%"
"CO[C@@H]1[C@H](O)[C@@H](CO)O[C@H]1n1cnc2c(NC3CCc4ccccc43)ncnc21 (stereo partly shown) [Compound 11, N^6-(2,3-dihydro-1H-indene-1-yl)-2'-O-methyladenosine]",450 mg/kg,133 ± 21 mmHg,41.3 ± 7%,
"CO[C@@H]1[C@H](O)[C@@H](CO)O[C@H]1n1cnc2c(NC3CCc4ccccc4C3)ncnc21 (stereo partly shown) [Compound 17, N^6-(2-tetrahydronaphthyl)-2'-O-methyladenosine]",,187 ± 7 mmHg,14.5 ± 1.9%,
"CO[C@@H]1[C@H](O)[C@@H](CO)O[C@H]1n1cnc2c(NC3CCCc4ccccc43)ncnc21 (stereo partly shown) [Compound 16, N^6-(1-tetrahydronaphthyl)-2'-O-methyladenosine]",230 mg/kg,109 ± 9 mmHg,47.2 ± 4.2%,
"CO[C@@H]1[C@H](O)[C@@H](CO)O[C@H]1n1cnc2c(NC3CCCC3)ncnc21 [Compound 1, N^6-cyclopentyl-2'-O-methyladenosine]",,,,"Blood pressure 2 hrs ([1]; 2 hours after oral 0.3 mg/kg): 98 ± 8 mmHg; inhibition in vivo at 0.3 mg/kg [1, 4]: 56.5 ± 5.5%"
"CO[C@@H]1[C@H](O)[C@@H](CO)O[C@H]1n1cnc2c(NCC(c3ccccc3)c3ccccc3)ncnc21 [Compound 5, N^6-(2,2-diphenylethyl)-2'-O-methyladenosine]",,148 ± 19 mmHg,30 ± 8.4%,
